Paper PMC9790248, “Effects of CYP3A Inhibition, CYP3A Induction, and Gastric Acid Reduction on the Pharmacokinetics of Ripretinib, a Switch Control KIT Tyrosine Kinase Inhibitor” (Clinical Pharmacology in Drug Development, 2022)
Like-named read-outs stand apart in the source and are kept apart here.

Key:
[1] = Rifampin (strong CYP3A inducer) DDI study, plasma pharmacokinetics; type: in vivo, human; conditions: for AUC(0-t) / AUC(0-inf) / Cmax / half-life / Tmax: both sexes, human, plasma; for AUC(0-t) / AUC(0-inf) / Cmax / half-life: po; for Tmax: read-out: tmax, median (min, max); for Time postdose that mean plasma concentration remained above the LLOQ: LLOQ 2.00 ng/mL
Experimental: All studies were phase 1, fixed‐sequence, open‐label studies in healthy volunteers. One study consisted of two separate cohorts examining DDIs between ripretinib and itraconazole or pantoprazole, respectively; the rifampin study was conducted separately. Studies and cohorts were enrolled independently. Eligible participants were healthy male or female adults between 18 and 55 years of age with a body mass index (BMI) of ≥18.5 and ≤30 kg/m^2. Good health was confirmed by a physician and based on medical evaluation with no significant findings, including medical history, physical examination, laboratory tests, and 12‐lead electrocardiogram (ECG) at screening and day −1. Participants were required to abstain from alcohol, marijuana, grapefruit, Seville oranges, tangelo, star fruit, and grapefruit‐like products 14 days prior to and during the study. Participants with a positive breath test for Helicobacter pylori were excluded from the pantoprazole study.
Participants were confined to the study center from days −1 through 22 for the collection of plasma PK samples and all study procedures. Participants received an oral dose of ripretinib 100 mg on day 1 under fasting conditions; a higher dose of ripretinib was used than in the itraconazole or pantoprazole study due to the potential for decreased ripretinib exposure when coadministered with a strong CYP3A inducer (Figure 1B). On day 8, participants received oral doses of rifampin 600 mg once daily 1 hour before a meal with a full glass of water for 14 consecutive days through day 21. On day 18, participants received a second dose of ripretinib 100 mg administered simultaneously with rifampin 600 mg under fasting conditions. Blood samples for PK analysis were collected at predose and 1, 2, 3, 4, 5, 8, 10, 12, 24, 36, 48, 72, and 96 hours after administration of ripretinib on days 1 and 18. Safety was assessed throughout the study period and with a follow‐up phone call on day 29 or 7 days after discontinuation in the case of early withdrawal.
Ripretinib and its active metabolite DP‐5439 plasma concentrations were measured using a validated high‐performance liquid chromatography (HPLC) with tandem mass spectrometry (LC‐MS/MS) assay with a lower limit of quantification (LLOQ) of 2.00 ng/mL for both analytes. In this method, the analytes (ripretinib and DP‐5439) and the internal standards (ISs; DCC‐2618‐d5 and DP‐5439‐d5) were released from human plasma samples by protein precipitation. The supernatants were chromatographed using reversed‐phase HPLC with a Betasil® C8 analytical column with deionized water (0.1% formic acid) and 40/60 acetonitrile/acetone (0.1% formic acid) as the mobile phase. Mass spectrometric detection was performed on a triple quadrupole tandem mass spectrometer API 5000 or API 5500 (Applied Biosystems/MDS Sciex, Toronto, Canada) equipped with a turbo ion spray source operated in the positive ionization mode. The source parameters were collision energy 40 eV, collision gas 6 psi, Nebulizer Gas 1, Turbo IonSpray Gas 2, and curtain gas 35 psi. Quantification was obtained by using multiple reaction monitoring mode of the transitions of mass to charge ratio [m/z] 510.3 →417 for DCC‐2618 (ripretinib), m/z 496.2 →403 for DP‐5439, m/z 515.3 →417 for DCC‐2618‐d5, and m/z 501.2 →403 for DP‐5439‐d5.
Plasma concentration–time data were analyzed using noncompartmental methods using Phoenix® WinNonlin® v7.0 (Certara USA Inc., Princeton, New Jersey). Derived PK parameters included area under the concentration–time curve from time 0 to time t (AUC0–t) and area under the concentration–time curve from 0 to infinity (AUC0–∞), maximum observed concentration (Cmax), time of maximum observed concentration (tmax), elimination half‐life (t1/2), apparent systemic clearance, and for DP‐5439, metabolite to parent ratio for AUC0–t, AUC0–∞, and Cmax. […]

CYP2D6 = target: T1, CYP2D6 (Homo sapiens, UniProt P10635); assay: Human liver microsomes with chemical inhibitors; type: in vitro ADME
T1 construct: with human liver microsomes (0.5 mg protein/mL) for 30 minutes; from tissue; host or cells: human liver microsomes
T1 sequence (P10635 whole entry): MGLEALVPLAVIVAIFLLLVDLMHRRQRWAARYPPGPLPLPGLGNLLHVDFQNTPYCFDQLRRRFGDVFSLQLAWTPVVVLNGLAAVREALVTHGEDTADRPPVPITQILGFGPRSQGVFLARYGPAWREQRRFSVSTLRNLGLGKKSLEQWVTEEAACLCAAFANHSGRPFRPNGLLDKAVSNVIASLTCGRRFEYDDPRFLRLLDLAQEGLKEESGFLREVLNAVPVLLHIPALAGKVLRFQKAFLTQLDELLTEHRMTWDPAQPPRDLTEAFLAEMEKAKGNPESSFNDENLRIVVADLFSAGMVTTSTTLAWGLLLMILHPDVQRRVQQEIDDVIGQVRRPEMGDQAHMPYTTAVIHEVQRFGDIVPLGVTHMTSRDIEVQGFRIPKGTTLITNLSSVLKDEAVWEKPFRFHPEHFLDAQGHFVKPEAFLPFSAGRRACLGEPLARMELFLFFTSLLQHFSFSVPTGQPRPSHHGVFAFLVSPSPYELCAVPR
Experimental: (§1) In vitro studies with recombinant human cytochrome P450 isoforms (CYPs) and human liver microsomes (with chemical inhibitors) indicate that CYP3A4/5 plays a major role in the metabolism of ripretinib (data on file). When incubated with a panel of recombinant human CYPs, ripretinib (0.1 or 1 μM) disappeared in the presence of CYP3A4 (87.8%–100%), CYP2D6 (97.7%–100%), CYP2C8 (71.2% and 18.9%, respectively), and CYP2C19 (15.7% and 6.7%, respectively).

CYP3A4/5 = assay: Human liver microsomes with chemical inhibitors; type: in vitro ADME
Experimental: as §1

CYP2C8 = target: T2, CYP2C8 (Homo sapiens, UniProt P10632); assay: Human liver microsomes with chemical inhibitors; type: in vitro ADME; conditions: metabolism-dependent inhibitor gemfibrozil glucuronide
T2 sequence (P10632 1-490): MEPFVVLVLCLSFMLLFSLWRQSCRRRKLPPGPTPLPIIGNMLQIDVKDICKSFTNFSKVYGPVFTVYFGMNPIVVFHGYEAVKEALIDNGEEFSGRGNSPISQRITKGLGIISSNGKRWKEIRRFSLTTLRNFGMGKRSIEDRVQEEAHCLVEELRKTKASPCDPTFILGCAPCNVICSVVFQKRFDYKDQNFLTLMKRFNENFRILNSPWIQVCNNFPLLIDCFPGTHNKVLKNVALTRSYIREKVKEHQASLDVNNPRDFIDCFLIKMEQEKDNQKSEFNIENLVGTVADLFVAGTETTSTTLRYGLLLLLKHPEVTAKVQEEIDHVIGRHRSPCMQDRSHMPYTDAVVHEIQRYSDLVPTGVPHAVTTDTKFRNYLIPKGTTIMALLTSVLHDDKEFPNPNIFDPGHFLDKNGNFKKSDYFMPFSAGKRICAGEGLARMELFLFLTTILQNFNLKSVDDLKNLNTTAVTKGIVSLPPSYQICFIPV
Experimental: as §1

[2] = ripretinib 100 mg single oral dose + rifampin 600 mg QD, fasting, healthy participants (N = 21)
[3] = ripretinib 100 mg single oral dose alone, fasting, healthy participants (rifampin study, N = 21)
[4] = ripretinib 100 mg with rifampin 600 mg QD relative to ripretinib alone
[5] = ripretinib 100 mg with rifampin 600 mg QD relative to ripretinib alone, listed as ripretinib

CCn1c(=O)c(-c2cc(NC(=O)Nc3ccccc3)c(F)cc2Br)cc2cnc(NC)cc21 [Ripretinib]
AUC(0-t) ([1]; 100 mg, ripretinib 100 mg single oral dose alone, fasting, healthy participants (rifampin study, N = 21), read-out: AUC0–t, arithmetic mean (SD)): 6620 ng·h/mL | AUC(0-t) ([1]; 100 mg, ripretinib 100 mg single oral dose alone, fasting, healthy participants (rifampin study, N = 21), read-out: AUC0–t, geometric mean (CV%)): 5720 ng·h/mL | AUC(0-inf) ([1]; 100 mg, ripretinib 100 mg single oral dose alone, fasting, healthy participants (rifampin study, N = 21), read-out: AUC0–∞, arithmetic mean (SD)): 6220 ng·h/mL | AUC(0-inf) ([1]; 100 mg, ripretinib 100 mg single oral dose alone, fasting, healthy participants (rifampin study, N = 21), read-out: AUC0–∞, geometric mean (CV%)): 5820 ng·h/mL | Cmax ([1]; 100 mg, ripretinib 100 mg single oral dose alone, fasting, healthy participants (rifampin study, N = 21), read-out: Cmax, arithmetic mean (SD)): 392 ng/mL | Cmax ([1]; 100 mg, ripretinib 100 mg single oral dose alone, fasting, healthy participants (rifampin study, N = 21), read-out: Cmax, geometric mean (CV%)): 363 ng/mL | half-life ([1]; 100 mg, ripretinib 100 mg single oral dose alone, fasting, healthy participants (rifampin study, N = 21), read-out: t1/2, arithmetic mean (SD) (converted)): 15 h | half-life ([1]; 100 mg, ripretinib 100 mg single oral dose alone, fasting, healthy participants (rifampin study, N = 21), read-out: t1/2, geometric mean (CV%) (converted)): 15 h | AUC(0-t) ([1]; ripretinib 100 mg single oral dose + rifampin 600 mg QD, fasting, healthy participants (N = 21), read-out: AUC0–t, arithmetic mean (SD)): 2360 ng·h/mL | AUC(0-t) ([1]; ripretinib 100 mg single oral dose + rifampin 600 mg QD, fasting, healthy participants (N = 21), read-out: AUC0–t, geometric mean (CV%)): 2230 ng·h/mL | AUC(0-inf) ([1]; ripretinib 100 mg single oral dose + rifampin 600 mg QD, fasting, healthy participants (N = 21), read-out: AUC0–∞, arithmetic mean (SD)): 2400 ng·h/mL | AUC(0-inf) ([1]; ripretinib 100 mg single oral dose + rifampin 600 mg QD, fasting, healthy participants (N = 21), read-out: AUC0–∞, geometric mean (CV%)): 2270 ng·h/mL | Cmax ([1]; ripretinib 100 mg single oral dose + rifampin 600 mg QD, fasting, healthy participants (N = 21), read-out: Cmax, arithmetic mean (SD)): 321 ng/mL | Cmax ([1]; ripretinib 100 mg single oral dose + rifampin 600 mg QD, fasting, healthy participants (N = 21), read-out: Cmax, geometric mean (CV%)): 299 ng/mL | half-life ([1]; ripretinib 100 mg single oral dose + rifampin 600 mg QD, fasting, healthy participants (N = 21), read-out: t1/2, arithmetic mean (SD) (converted)): 7 h | half-life ([1]; ripretinib 100 mg single oral dose + rifampin 600 mg QD, fasting, healthy participants (N = 21), read-out: t1/2, geometric mean (CV%) (converted)): 7 h | Tmax [1, 2]: 3 h | Tmax [1, 3]: 3 h | Exposure when combined with rifampin, relative to ripretinib alone ([1]; ripretinib 100 mg + rifampin 600 mg QD): less than half | Time postdose that mean plasma concentration remained above the LLOQ ([1]; ripretinib 100 mg alone (rifampin study)): up to 96 hours | CL/F, arithmetic mean (SD) [1, 2]: 47 (16) L/h | CL/F, geometric mean (CV%) [1, 2]: 44 (35) L/h | t1/2, geometric mean (CV%) [1, 2]: 6 (46) h | CL/F, arithmetic mean (SD) [1, 3]: 18 (7) L/h | CL/F, geometric mean (CV%) [1, 3]: 17 (39) L/h | Geometric LS mean ratio of AUC0–t [1, 4]: 39% | Geometric LS mean ratio of AUC0–∞ (90% CI) [1, 4]: 39 (35–44) % | Geometric LS mean ratio of Cmax (90% CI) [1, 4]: 82 (72–94) % | Geometric LS mean ratio of AUC0–∞ (90% CI) [1, 5]: 39% | Geometric LS mean ratio of Cmax (90% CI) [1, 5]: 82% | Time postdose that mean plasma concentration remained above the LLOQ ([1]; ripretinib 100 mg with rifampin): approximately 36 hours | Inhibition of metabolism of ripretinib on inhibition of CYP2D6 (CYP2D6; human liver microsomes, metabolism-dependent inhibitor paroxetine): 16% | Decrease in metabolism of ripretinib on inhibition of CYP2D6 (CYP2D6; ripretinib 0.1 μM, human liver microsomes 0.5 mg protein/mL, 30 minutes, with quinidine): ≤ 26% | Inhibition of metabolism of ripretinib on inhibition of CYP3A4/5 (CYP3A4/5; human liver microsomes, metabolism-dependent inhibitor troleandomycin): 79% | Role of CYP3A4/5 in metabolism (CYP3A4/5; recombinant human CYPs and human liver microsomes with chemical inhibitors, data on file): major role | Decrease in metabolism of ripretinib on inhibition of CYP3A4/5 (CYP3A4/5; ripretinib 0.1 μM, human liver microsomes 0.5 mg protein/mL, 30 minutes, with ketoconazole): up to 63% | Inhibition of metabolism of ripretinib on inhibition of CYP2C8 (CYP2C8): 24%
